Our source for the IC50 and Ki values is ChEMBL document CHEMBL5230123, “A comprehensive review of monoamine oxidase inhibitors as Anti-Alzheimer's disease agents: A review” (Eur J Med Chem, 2020).

Experiment [1] has as its target T1, Amine oxidase [flavin-containing] B (Homo sapiens, UniProt P27338).
T1 sequence (P27338 whole entry): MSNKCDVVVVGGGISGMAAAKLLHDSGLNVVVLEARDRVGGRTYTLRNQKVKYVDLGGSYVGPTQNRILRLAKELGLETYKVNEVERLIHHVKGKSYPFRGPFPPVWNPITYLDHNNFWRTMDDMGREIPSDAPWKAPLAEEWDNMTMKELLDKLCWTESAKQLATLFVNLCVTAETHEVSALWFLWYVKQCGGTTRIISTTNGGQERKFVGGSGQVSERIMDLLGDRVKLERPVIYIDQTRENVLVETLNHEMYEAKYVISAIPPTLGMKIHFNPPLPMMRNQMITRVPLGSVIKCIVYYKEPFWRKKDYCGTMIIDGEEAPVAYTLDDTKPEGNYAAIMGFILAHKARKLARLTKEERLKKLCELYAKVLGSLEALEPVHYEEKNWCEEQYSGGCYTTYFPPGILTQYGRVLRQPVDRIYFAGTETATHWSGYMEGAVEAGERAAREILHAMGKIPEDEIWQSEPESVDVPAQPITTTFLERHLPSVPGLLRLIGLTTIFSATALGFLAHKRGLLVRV
The experiment can be described thus: Inhibition of MAO-B (unknown origin) using kynuramine as substrate preincubated for 10 mins followed by substrate addition and measured after 20 mins by fluorescence microplate reader assay.

In experiment [2] the target is T2, Amine oxidase [flavin-containing] A (Homo sapiens, UniProt P21397).
T2 sequence (P21397 whole entry): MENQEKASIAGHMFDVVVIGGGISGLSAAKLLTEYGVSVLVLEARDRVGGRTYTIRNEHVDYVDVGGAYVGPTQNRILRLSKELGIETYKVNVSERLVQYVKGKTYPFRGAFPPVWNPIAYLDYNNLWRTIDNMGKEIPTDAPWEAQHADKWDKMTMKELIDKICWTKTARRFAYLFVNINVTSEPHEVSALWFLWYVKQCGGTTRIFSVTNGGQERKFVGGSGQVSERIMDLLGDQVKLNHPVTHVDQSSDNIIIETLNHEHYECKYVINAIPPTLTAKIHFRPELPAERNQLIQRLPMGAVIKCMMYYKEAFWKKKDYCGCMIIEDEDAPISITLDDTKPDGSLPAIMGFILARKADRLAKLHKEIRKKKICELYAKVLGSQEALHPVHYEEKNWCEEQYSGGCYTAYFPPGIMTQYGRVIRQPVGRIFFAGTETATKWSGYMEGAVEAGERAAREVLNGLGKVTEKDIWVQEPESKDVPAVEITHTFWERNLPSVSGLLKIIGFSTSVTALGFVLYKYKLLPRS
The experiment can be described thus: Inhibition of MAO-A (unknown origin) using kynuramine as substrate preincubated for 10 mins followed by substrate addition and measured after 20 mins by fluorescence microplate reader assay.

The target in experiment [3] is T1, Amine oxidase [flavin-containing] B. In words: Inhibition of human MAO-B using benzylamine as substrate.
Experiment [4] deals with T2, Amine oxidase [flavin-containing] A. The experiment can be described thus: Inhibition of human MAO-A assessed as inhibition constant using kynuramine as substrate.
Experiment [5] deals with T1, Amine oxidase [flavin-containing] B. In words: Inhibition of human MAO-B assessed as inhibition constant using benzylamine as substrate.
Experiment [6] shares this target. The experiment can be described thus: Inhibition of recombinant human MAO-B using tyramine hydrochloride as substrate preincubated for 30 mins followed by substrate addition and measured after 30 mins by fluorescence assay.
Experiment [7] has as its target Acetylcholinesterase (Electrophorus electricus, UniProt O42275). In words: Inhibition of electric eel AChE using acetylthiocholine iodide as substrate incubated for 15 mins by Ellman's method. In general terms: In Ellman's method for cholinesterases, released thiocholine reacts with DTNB.
For experiment [8], the target named is T3, Amine oxidase [flavin-containing] B (Rattus norvegicus, UniProt P19643).
T3 sequence (P19643 whole entry): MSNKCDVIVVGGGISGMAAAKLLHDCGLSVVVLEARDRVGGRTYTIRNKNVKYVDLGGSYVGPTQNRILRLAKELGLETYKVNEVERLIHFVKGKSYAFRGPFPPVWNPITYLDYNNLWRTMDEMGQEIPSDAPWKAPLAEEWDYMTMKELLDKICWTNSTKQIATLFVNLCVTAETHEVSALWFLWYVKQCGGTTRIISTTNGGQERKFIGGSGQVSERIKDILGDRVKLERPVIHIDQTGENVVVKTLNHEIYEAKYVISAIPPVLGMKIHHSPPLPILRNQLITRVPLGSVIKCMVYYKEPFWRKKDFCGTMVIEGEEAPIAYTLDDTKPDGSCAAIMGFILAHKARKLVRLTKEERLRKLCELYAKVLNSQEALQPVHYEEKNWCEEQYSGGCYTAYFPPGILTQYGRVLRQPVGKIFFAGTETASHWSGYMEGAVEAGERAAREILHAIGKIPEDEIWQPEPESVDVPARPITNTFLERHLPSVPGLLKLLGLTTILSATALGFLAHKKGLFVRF
In words: Inhibition of rat brain mitochondria MAO-B using benzylamine as substrate incubated for 30 mins by microplate reader assay.

In experiment [9] the target is Acetylcholinesterase (Homo sapiens, UniProt P22303). The experiment can be described thus: Inhibition of human AChE using acetylcholine as substrate incubated for 5 mins followed by substrate addition by Ellman's method.
In experiment [10] the target is T1, Amine oxidase [flavin-containing] B. The experiment can be described thus: Inhibition of recombinant human MAO-B using p-tyramine as substrate preincubated for 15 mins followed by substrate addition and measured after 20 mins by fluorescence assay.
The target is the same in experiment [11]. In words: Inhibition of human MAO-B using tyramine hydrochloride as substrate preincubated for 30 mins followed by substrate addition and measured after 30 mins by fluorescence assay.
The target is the same in experiment [12]. In words: Inhibition of human MAO-B.
The target in experiment [13] is T2, Amine oxidase [flavin-containing] A. The experiment can be described thus: Mixed type inhibition of human MAO-A assessed as inhibition constant by Lineweaver-Burk plot analysis.

The structures appear in SMILES notation.

Acetylcholinesterase (Electrophorus electricus, UniProt O42275), sequence (O42275 whole entry): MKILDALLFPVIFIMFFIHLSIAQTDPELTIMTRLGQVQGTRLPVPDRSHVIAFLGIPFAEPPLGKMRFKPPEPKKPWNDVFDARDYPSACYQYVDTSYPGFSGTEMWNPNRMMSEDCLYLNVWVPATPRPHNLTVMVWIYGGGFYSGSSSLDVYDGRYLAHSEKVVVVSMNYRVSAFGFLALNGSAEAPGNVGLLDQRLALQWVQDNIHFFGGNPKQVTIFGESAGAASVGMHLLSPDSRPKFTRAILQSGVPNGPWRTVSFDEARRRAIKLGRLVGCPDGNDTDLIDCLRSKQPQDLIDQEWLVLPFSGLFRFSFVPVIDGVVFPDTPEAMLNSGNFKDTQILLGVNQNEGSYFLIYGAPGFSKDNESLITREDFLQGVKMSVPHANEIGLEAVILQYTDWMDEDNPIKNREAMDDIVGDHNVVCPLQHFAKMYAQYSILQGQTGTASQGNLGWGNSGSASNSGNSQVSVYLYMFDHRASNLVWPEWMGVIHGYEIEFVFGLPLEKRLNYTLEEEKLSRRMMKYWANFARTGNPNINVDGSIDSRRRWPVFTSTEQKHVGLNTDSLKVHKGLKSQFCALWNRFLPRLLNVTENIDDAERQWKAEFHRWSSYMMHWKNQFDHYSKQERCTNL
Acetylcholinesterase (Homo sapiens, UniProt P22303), sequence (P22303 whole entry): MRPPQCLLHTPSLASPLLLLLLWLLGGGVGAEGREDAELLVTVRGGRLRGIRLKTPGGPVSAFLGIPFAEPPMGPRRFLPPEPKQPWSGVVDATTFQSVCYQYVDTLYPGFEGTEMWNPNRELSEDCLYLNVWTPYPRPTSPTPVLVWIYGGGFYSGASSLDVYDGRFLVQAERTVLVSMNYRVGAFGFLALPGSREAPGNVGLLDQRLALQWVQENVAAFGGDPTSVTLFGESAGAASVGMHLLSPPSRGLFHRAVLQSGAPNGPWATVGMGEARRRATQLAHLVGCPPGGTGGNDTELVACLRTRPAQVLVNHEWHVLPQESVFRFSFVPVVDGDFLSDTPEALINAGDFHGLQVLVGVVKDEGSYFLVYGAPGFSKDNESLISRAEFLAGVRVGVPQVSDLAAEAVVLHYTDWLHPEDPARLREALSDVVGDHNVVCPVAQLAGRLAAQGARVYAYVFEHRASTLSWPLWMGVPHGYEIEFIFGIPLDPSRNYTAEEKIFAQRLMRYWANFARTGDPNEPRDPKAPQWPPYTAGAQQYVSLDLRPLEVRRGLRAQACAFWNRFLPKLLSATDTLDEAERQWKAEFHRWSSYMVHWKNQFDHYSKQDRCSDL

By IC50 is commonly meant the point on the concentration scale where inhibition reaches its midpoint. Turning to `CCOc1ccc([N+](=O)[O-])c(N/N=C/c2ccc(O)cc2)n1`, the figures for the concentration for half-maximal inhibition (IC50) in experiment [1] and in experiment [2] were 9.3 µM and 6.25 µM, respectively. In general, Ki refers to the equilibrium dissociation constant of an inhibitor or competing ligand from its target. In turn, `COc1cc(/C=C/C(=O)CC(=O)/C=C/c2ccc(O)cc2)ccc1O` yielded a concentration for half-maximal inhibition (IC50) in experiment [3] of 2.45 µM. Besides, the Ki in experiment [4] worked out at 0.91 µM. `O=C(/C=C/c1ccc(O)cc1)CC(=O)/C=C/c1ccc(O)cc1` [BISDEMETHOXYCURCUMIN]: the IC50 in [3] was 2.59 µM. In experiment [5], the Ki was determined as 0.8 µM. Consider `CC1CCCCN1c1ccc(/C=N/Nc2ccccc2)cc1` (centres undefined), for which the IC50 in experiment [6] stood at 0.342 µM. In turn, `C#CCN1C(=O)/C(=N/NC(=O)c2ccc3c(c2)OCO3)c2ccccc21` displayed a concentration for half-maximal inhibition (IC50) in experiment [7] of 0.052 µM. Regarding `O=C1Nc2ccc(Cl)cc2/C1=N\NC(=O)c1ccc2c(c1)OCO2`, it took 0.034 µM to reach half-maximal inhibition in [8] (IC50). For `Cc1c(C)c2c(c(C)c1O)CCC(C)(C(=O)NCCC1CCN(Cc3ccccc3F)CC1)O2` (centres undefined), the figures for the half-inhibitory concentration (IC50) in [9] and in [10] were 0.54 µM and 4.3 µM, respectively. As to `O=C(CSC(=S)N1CCN(c2ccc([N+](=O)[O-])cc2)CC1)N(Cc1ccc([N+](=O)[O-])cc1)c1ccc(F)cc1`, half-maximal inhibition in experiment [11] (IC50) was put at 0.097 µM. `COc1cc(O)c2c(=O)oc3cc(O)cc(C)c3c2c1` registered an IC50 in experiment [12] greater than 80 µM. For the same compound, the Ki in [13] came out at 0.34 µM.
